In PubChem BioAssay (NCI):
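How tested: cells in 96-well plates exposed to compound for 48 hours at five concentrations. The concentration for 50% growth inhibition is given as GI50. TGI is the concentration that stops growth completely.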

Columns and labels:
Test in all cases: growth of human tumour cells (NCI), 48 h
M14 melanoma = system: M14 melanoma
T-47D breast = system: T-47D breast
SF-539 CNS = system: SF-539 CNS
MDA-MB-435 = system: MDA-MB-435
HOP-92 NSCLC = system: HOP-92 NSCLC
MOLT-4 leukemia = system: MOLT-4 leukemia
TK-10 renal = system: TK-10 renal
SK-OV-3 ovarian = system: SK-OV-3 ovarian
MALME-3M melanoma = system: MALME-3M melanoma
BT-549 breast = system: BT-549 breast
MDA-MB-231 breast = system: MDA-MB-231 breast
SK-MEL-2 melanoma = system: SK-MEL-2 melanoma
UO-31 renal = system: UO-31 renal
NCI-H226 lung = system: NCI-H226 lung
SW-620 colon = system: SW-620 colon
K-562 leukemia = system: K-562 leukemia
COLO 205 colon = system: COLO 205 colon
SF-268 CNS = system: SF-268 CNS
EKVX NSCLC = system: EKVX NSCLC
RPMI-8226 leukemia = system: RPMI-8226 leukemia
RXF 393 renal = system: RXF 393 renal
OVCAR-8 ovarian = system: OVCAR-8 ovarian
HS 578T breast = system: HS 578T breast
SNB-75 CNS = system: SNB-75 CNS
NCI-H23 lung = system: NCI-H23 lung
A498 renal = system: A498 renal
UACC-257 melanoma = system: UACC-257 melanoma
UACC-62 melanoma = system: UACC-62 melanoma
HCT-116 colon = system: HCT-116 colon
SK-MEL-28 melanoma = system: SK-MEL-28 melanoma
SR leukemia = system: SR leukemia
HL-60(TB) leukemia = system: HL-60(TB) leukemia
786-0 renal = system: 786-0 renal
HCC-2998 colon = system: HCC-2998 colon
NCI/ADR-RES ovarian = system: NCI/ADR-RES ovarian
SN12C renal = system: SN12C renal
CAKI-1 renal = system: CAKI-1 renal
U251 CNS = system: U251 CNS
OVCAR-5 ovarian = system: OVCAR-5 ovarian
HOP-62 NSCLC = system: HOP-62 NSCLC
CCRF-CEM leukemia = system: CCRF-CEM leukemia
LOX IMVI melanoma = system: LOX IMVI melanoma
PC-3 prostate = system: PC-3 prostate
SNB-19 CNS = system: SNB-19 CNS
HT29 colon = system: HT29 colon
SF-295 CNS = system: SF-295 CNS
DU-145 prostate = system: DU-145 prostate
IGROV1 ovarian = system: IGROV1 ovarian
ACHN renal = system: ACHN renal
HCT-15 colon = system: HCT-15 colon
OVCAR-3 ovarian = system: OVCAR-3 ovarian
SK-MEL-5 melanoma = system: SK-MEL-5 melanoma

What does the source list for Nc1nc(-c2cccc([N+](=O)[O-])c2)c(N=Nc2cccc([N+](=O)[O-])c2)s1?
GI50 (M14 melanoma): > 100 µM; TGI (M14 melanoma): > 100 µM; GI50 (T-47D breast): > 100 µM; TGI (T-47D breast): > 100 µM; GI50 (SF-539 CNS): > 100 µM; TGI (SF-539 CNS): > 100 µM; GI50 (MDA-MB-435): > 100 µM; TGI (MDA-MB-435): > 100 µM; GI50 (HOP-92 NSCLC): 3.79 µM; TGI (HOP-92 NSCLC): > 100 µM; GI50 (MOLT-4 leukemia): > 25.3 µM; TGI (MOLT-4 leukemia): > 100 µM; GI50 (TK-10 renal): 46.5 µM; TGI (TK-10 renal): > 100 µM; GI50 (SK-OV-3 ovarian): > 100 µM; TGI (SK-OV-3 ovarian): > 100 µM; GI50 (MALME-3M melanoma): > 100 µM; TGI (MALME-3M melanoma): > 100 µM; GI50 (BT-549 breast): 10.4 µM; TGI (BT-549 breast): > 100 µM; GI50 (MDA-MB-231 breast): 13.6 µM; TGI (MDA-MB-231 breast): > 100 µM; GI50 (SK-MEL-2 melanoma): > 92.8 µM; TGI (SK-MEL-2 melanoma): > 100 µM; GI50 (UO-31 renal): > 100 µM; TGI (UO-31 renal): > 100 µM; GI50 (NCI-H226 lung): > 100 µM; TGI (NCI-H226 lung): > 100 µM; GI50 (SW-620 colon): > 100 µM; TGI (SW-620 colon): > 100 µM; GI50 (K-562 leukemia): 1390 nM; TGI (K-562 leukemia): > 65 µM; GI50 (COLO 205 colon): > 100 µM; TGI (COLO 205 colon): > 100 µM; GI50 (SF-268 CNS): > 100 µM; TGI (SF-268 CNS): > 100 µM; GI50 (EKVX NSCLC): > 78.5 µM; TGI (EKVX NSCLC): > 100 µM; GI50 (RPMI-8226 leukemia): > 100 µM; TGI (RPMI-8226 leukemia): > 100 µM; GI50 (RXF 393 renal): > 100 µM; TGI (RXF 393 renal): > 100 µM; GI50 (OVCAR-8 ovarian): > 100 µM; TGI (OVCAR-8 ovarian): > 100 µM; GI50 (HS 578T breast): > 100 µM; TGI (HS 578T breast): > 100 µM; GI50 (SNB-75 CNS): 53 µM; TGI (SNB-75 CNS): > 100 µM; GI50 (NCI-H23 lung): > 100 µM; TGI (NCI-H23 lung): > 100 µM; GI50 (A498 renal): 33.1 µM; TGI (A498 renal): > 100 µM; GI50 (UACC-257 melanoma): > 100 µM; TGI (UACC-257 melanoma): > 100 µM; GI50 (UACC-62 melanoma): > 100 µM; TGI (UACC-62 melanoma): > 100 µM; GI50 (HCT-116 colon): > 100 µM; TGI (HCT-116 colon): > 100 µM; GI50 (SK-MEL-28 melanoma): > 100 µM; TGI (SK-MEL-28 melanoma): > 100 µM; GI50 (SR leukemia): 19.2 µM; TGI (SR leukemia): > 57.3 µM; GI50 (HL-60(TB) leukemia): > 52.6 µM; TGI (HL-60(TB) leukemia): > 92.8 µM; GI50 (786-0 renal): 63 µM; TGI (786-0 renal): > 100 µM; GI50 (HCC-2998 colon): > 100 µM; TGI (HCC-2998 colon): > 100 µM; GI50 (NCI/ADR-RES ovarian): > 100 µM; TGI (NCI/ADR-RES ovarian): > 100 µM; GI50 (SN12C renal): > 100 µM; TGI (SN12C renal): > 100 µM; GI50 (CAKI-1 renal): > 100 µM; TGI (CAKI-1 renal): > 100 µM; GI50 (U251 CNS): 4.29 µM; TGI (U251 CNS): > 100 µM; GI50 (OVCAR-5 ovarian): > 100 µM; TGI (OVCAR-5 ovarian): > 100 µM; GI50 (HOP-62 NSCLC): 64.9 µM; TGI (HOP-62 NSCLC): > 100 µM; GI50 (CCRF-CEM leukemia): 39.7 µM; TGI (CCRF-CEM leukemia): > 100 µM; GI50 (LOX IMVI melanoma): > 100 µM; TGI (LOX IMVI melanoma): > 100 µM; GI50 (PC-3 prostate): > 27.2 µM; TGI (PC-3 prostate): > 100 µM; GI50 (SNB-19 CNS): 57.9 µM; TGI (SNB-19 CNS): > 100 µM; GI50 (HT29 colon): > 100 µM; TGI (HT29 colon): > 100 µM; GI50 (SF-295 CNS): > 100 µM; TGI (SF-295 CNS): > 100 µM; GI50 (DU-145 prostate): > 100 µM; TGI (DU-145 prostate): > 100 µM; GI50 (IGROV1 ovarian): > 100 µM; TGI (IGROV1 ovarian): > 100 µM; GI50 (ACHN renal): > 100 µM; TGI (ACHN renal): > 100 µM; GI50 (HCT-15 colon): > 100 µM; TGI (HCT-15 colon): > 100 µM; GI50 (OVCAR-3 ovarian): > 100 µM; TGI (OVCAR-3 ovarian): > 100 µM; GI50 (SK-MEL-5 melanoma): 56.9 µM; TGI (SK-MEL-5 melanoma): > 100 µM
